Measurements from article PMC8111447 (Frontiers in Pharmacology, 2021).
Where two headings read alike, the source gives them in different places.

Assays:
[1] = tested on: EGFR phosphorylation (pY1068) in A431 cells; assay: Phosphorylation of EGFR assay, time course; assay type: cell-based, human; conditions: 0.1 μmol/L, 1-10 h, EGF stimulated
Method: (§1) Cells (NCI-H1975/PC-9/[…]) were seeded into a 384-well plate (10,000 cells/well), grown for 24 h, and then treated with different test compounds (0.1 μmol/L) for 1, 2, 4, 6, 8 and 10 h. A431 cells were stimulated with 100 ng/ml EGF after incubation for 10 min. Cells were washed with ice-cold HBSS before extraction with 25 μl cell lysis buffer. Phosphorylation of EGFR was measured using a sandwich ELISA assay with phospho-specific EGFR (pY1068) antibodies [AlphaLISA SureFire p-EGF Receptor (Tyr1068) Assay Kit, PerkinElmer].

[2] = tested on: EGFR phosphorylation (pY1068) in PC-9 cells; assay: Phosphorylation of EGFR assay, time course; assay type: cell-based, human; conditions: 0.1 μmol/L, 1-10 h
Method: as §1

[3] = tested on: NCI-H1975 (L858R/T790M) xenograft; assay: NCI-H1975 xenograft model; assay type: in vivo, Nu/Nu nude mice; conditions: for tumor growth inhibition rate: after 14 days of dosing, vs vehicle
Method: (§2) The female Nu/Nu nude mice were purchased from Beijing Vital River Laboratories. […] Nu/Nu nude mice were purchased from the Beijing Vital River Laboratories of China. The 6–8 weeks old female mice were inoculated subcutaneously at the right flank with approximately 3–5 × 10^6 tumor cells in 0.2 ml of medium. The treatments were started when the tumor size reached approximately 200 mm^3. […] All mice were orally administrated once daily for consecutive 14 days. Mouse body weight, tumor weight and tumor volume (TV) were measured twice per week. TV was then used for the calculation of tumor inhibitory rate and tumor regression rate.

[4] = tested on: PC-9 (exon 19 del) xenograft; assay: PC-9 xenograft model; assay type: in vivo, Nu/Nu nude mice; conditions: oral, 2.5 to 15 mg/kg
Method: as §2

[5] = tested on: A431 (wild-type EGFR) tumor xenografts; assay: A431 xenograft model; assay type: in vivo, Nu/Nu nude mice; conditions: 5 mg/kg/day
Method: as §2

[6] = tested on: phosphorylation of EGFR and ERK; assay: Immunohistochemistry of tumor tissue from NCI-H1975 xenograft model; assay type: in vivo, Nu/Nu nude mice; conditions: 6–24 h
Method: Paraffin-embedded tumor tissues from each group were sectioned, mounted on positively charged glass slides, baked, deparaffinized, and rehydrated. Antigen retrieval was performed by heating slides in EDTA (pH 8.0) for 10 min. Sections were incubated in p-EGF Receptor ([…]) Rabbit antibody and Phospho-p44/42 MAPK (Erk1/2) (Thr202/Tyr204) (20G11) Rabbit antibody overnight at 4°C and then incubated with Anti-Rabbit IgG (H + L) at 37°C for 45 min. The sections were then stained with diaminobenzidine (DAB) and visualized.

[7] = Plasma pharmacokinetics in NCI-H1975 tumor-bearing mice; assay type: in vivo; conditions: for AUC(0-t): po, read-out: AUC0–t in plasma
Method: (§3) NCI-H1975 tumor-bearing mice with tumor burden of approximately 200 mm^3 were used in the pharmacokinetics and pharmacodynamics study. […] Blood samples were collected at 0 (pre-dose), 10, 30 min, 1, 2, 4, 8, and 24 h post-dose.
(§4) Ionization mode. Drug to internal standard peak area ratios for the standards were used to create a calibration curve using 1/×^2 weighted least-squares regression analysis. Concentrations of each analyte were quantified by comparing the ratios for each in-trial sample with those in the relevant calibration curve.

[8] = Tissue distribution in NCI-H1975 tumor-bearing mice; assay type: in vivo
Method: as §3, §4

[9] = Metabolite profiling in liver microsomes; assay type: in vitro ADME; conditions: incubation 60 min at 37°C; mouse, rat, dog, monkey and human liver microsomes
Method: Metabolite profiling was conducted in mouse, rat, dog, monkey, and human liver microsomes in vitro as well as in rat plasma, feces, and urine samples in vivo (From other experiments). […] All samples were analyzed by the LC/MS/MS (AB Sciex, API 5500 Qtrap) system. The structures of major metabolites were elucidated based on EPI spectra and further verified using authentic standards. The main metabolite Imp3 was quantified in multiple reaction monitoring mode in rat, dog and human clinical samples.

- AUC(0-t) ([7]; Nu/Nu nude, mouse, plasma, 2.5 mg/kg, 2.5 mg/kg oral daily, Day 14): 272 ng·h/mL
- AUC(0-t) ([7]; Nu/Nu nude, mouse, plasma, 2.5 mg/kg, 2.5 mg/kg oral, Day 1): 118 ng·h/mL
- AUC(0-t) ([7]; Nu/Nu nude, mouse, plasma, 5 mg/kg, 5 mg/kg oral daily, Day 14): 308 ng·h/mL
- AUC(0-t) ([7]; Nu/Nu nude, mouse, plasma, 5 mg/kg, 5 mg/kg oral, Day 1): 300 ng·h/mL
- AUC(0-t) ([7]; Nu/Nu nude, mouse, plasma, 15 mg/kg, 15 mg/kg oral daily, Day 14): 993 ng·h/mL
- AUC(0-t) ([7]; Nu/Nu nude, mouse, plasma, 15 mg/kg, 15 mg/kg oral, Day 1): 931 ng·h/mL
- Tmax ([7]; Nu/Nu nude, mouse, plasma, oral 2.5, 5 and 15 mg/kg): 1.5 to 2 h
- accumulation between Days 1–14 ([7]; oral daily dosing for 14 days): no significant accumulation
- blood-brain barrier penetration ([8]; pharmacokinetic experiments): could penetrate the blood-brain barrier
- number of metabolites detected [9]: 27
SMILES: C=CC(=O)Nc1cc(Nc2nccc(-c3c4n(c5ccccc35)CCCC4)n2)c(OC)cc1N(C)CCN(C)C [SH-1028]
- inhibitory effect on EGFR phosphorylation [1]: weak inhibitory effect
- inhibitory effect on EGFR phosphorylation [2]: stronger than that of osimertinib
- tumor growth inhibition rate ([3]; 2.5 mg/kg oral once daily): 72.6%
- tumor growth inhibition rate ([3]; 5 mg/kg oral once daily): 91.8%
- tumor growth inhibition rate ([3]; 15 mg/kg oral once daily): 98.8%
- body weight ([3]; 2.5 to 15 mg/kg oral once daily, 14 days): no TKI-induced weight loss
- tumor growth [4]: significant inhibition of tumor cell growth
- tumor growth [5]: moderate tumor growth inhibition
- phosphorylation levels of EGFR and ERK in tumor tissues [6]: continuously inhibit the phosphorylation of EGFR and ERK
- distribution into tissues (tumor tissues, adjacent lung tissues and brain) ([8]; 15 mg/kg oral, within 2 h, Day 1): rapidly and extensively distributed into tissues
